The experiment concerns the target T1, CRTH2 (DP2) (Homo sapiens, UniProt Q9Y5Y4).
T1 construct: host or cells: CHO cells
T1 sequence (Q9Y5Y4 1-395): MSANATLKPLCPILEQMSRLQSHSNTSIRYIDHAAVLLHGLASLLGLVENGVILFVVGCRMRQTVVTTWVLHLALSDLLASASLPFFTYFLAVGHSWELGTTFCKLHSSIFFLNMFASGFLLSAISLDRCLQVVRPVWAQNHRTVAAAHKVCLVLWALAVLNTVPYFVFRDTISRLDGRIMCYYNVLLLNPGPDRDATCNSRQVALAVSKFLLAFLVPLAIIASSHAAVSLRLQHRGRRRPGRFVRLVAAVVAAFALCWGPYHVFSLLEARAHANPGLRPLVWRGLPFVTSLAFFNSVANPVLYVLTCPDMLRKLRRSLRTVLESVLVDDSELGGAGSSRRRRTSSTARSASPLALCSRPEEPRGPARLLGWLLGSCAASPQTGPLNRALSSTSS
Description: Radioligand binding Scintillation Proximity Assay ([3H]PGD2, hCRTH2-CHO cell membranes). The settings on record: 1.5 nM [3H]PGD2, hCRTH2-CHO cell membranes, SPA. Here is the method: Adherent CHO cells expressing hCRTH2 (Euroscreen, Belgium) were cultured in 225 cm^2 cell culture flasks (Corning, USA) in 30 ml of medium. After two rinses of phosphate buffered saline (PBS), cells were harvested in 10 ml of PBS containing 1 mM EDTA, centrifuged at 500×g for 5 min at 4° C. and frozen at −80° C. The pellet was re-suspended in 50 mM Tris-HCl, pH 7.4, 2 mM EDTA, 250 mM Sucrose, containing protease inhibitor cocktail tablets, (Complete EDTA-free, Roche, Germany) and incubated 30 min at 4° C. Cells were disrupted by nitrogen cavitation (Parr Instruments, USA) at 4° C. (800 p.s.i. for 30 min), and centrifuged at 500×g for 10 min at 4° C. Pellet containing nuclei and cellular debris was discarded and supernatant was centrifuged 60 min at 4° C. at 45000×g. Membrane pellet was re-suspended in storage buffer (10 mM HEPES/KOH pH 7.4, 1 mM EDTA, 250 mM sucrose, protease inhibitor cocktail tablets) using Dounce homogenization and frozen in liquid nitrogen, and stored at 80° C.
Non-specific binding was determined in the presence of 10 μM PGD2 (Cayman, USA). Competing Compounds of Formula (I) were diluted in dimethylsulphoxide so that the total volume of dimethylsulfoxide was kept constant at 1% dimethylsulphoxide (Me2SO). Serial dilutions of […] were prepared and 10 μl each of the compounds of Formula (I) stock solutions were added to the binding assay reagents and incubated for 90 min with agitation at room temperature.
For `CCC(=O)N(Cc1cccc(C#CCO)c1)c1cccc(-c2nnn[nH]2)c1` [Example 48, N-[3-(3-hydroxyprop-1-yn-1-yl)benzyl]-N-[3-(1H-tetrazol-5-yl)phenyl]propanamide], the IC50 amounted to 1270 nM.

`CCCC#Cc1cccc(CN(C(=O)CC)c2cccc(-c3nnn[nH]3)c2)c1` [Example 49, N-(3-pent-1-yn-1-ylbenzyl)-N-[3-(1H-tetrazol-5-yl)phenyl]propanamide] had a half-inhibitory concentration (IC50) of 618 nM.

For the compound `CCC(=O)N(Cc1cccc(C#CC(C)(C)C)c1)c1cccc(-c2nnn[nH]2)c1` [Example 50, N-[3-(3,3-dimethylbut-1-yn-1-yl)benzyl]-N-[3-(1H-tetrazol-5-yl)phenyl]propanamide], the concentration for half-maximal inhibition (IC50) is 1300 nM.

`CCC(=O)N(Cc1cccnc1)c1cccc(-c2nnn[nH]2)c1` [Example 51, N-(pyridin-3-ylmethyl)-N-[3-(1H-tetrazol-5-yl)phenyl]propanamide] displayed a concentration for half-maximal inhibition (IC50) of 6750 nM.

For the compound `CCC(=O)N(Cc1ccncc1)c1cccc(-c2nnn[nH]2)c1` [Example 52, N-(pyridin-4-ylmethyl)-N-[3-(1H-tetrazol-5-yl)phenyl]propanamide], the IC50 turned out to be 6680 nM.

`CCCCC(=O)N(Cc1ccc(C(F)(F)F)cc1)c1cc(F)cc(-c2nnn[nH]2)c1` [Example 60, N-[3-fluoro-5-(1H-tetrazol-5-yl)phenyl]-N-[4-(trifluoromethyl)benzyl]pentanamide]: the IC50 is 2.6 nM.

`CCC(=O)N(Cc1cccc(-c2c(C)noc2C)c1)c1cccc(-c2nnn[nH]2)c1` [Example 61, N-[3-(3,5-dimethylisoxazol-4-yl)benzyl]-N-[3-(1H-tetrazol-5-yl)phenyl]propanamide] gave a half-inhibitory concentration (IC50) of 305 nM.

`CCC(=O)N(Cc1cccc(-c2cnoc2)c1)c1cccc(-c2nnn[nH]2)c1` [Example 62, N-(3-isoxazol-4-ylbenzyl)-N-[3-(1H-tetrazol-5-yl)phenyl]propanamide]: the IC50 was determined as 769 nM.

For `CCC(=O)N(Cc1cccc(-c2sc(C)nc2C)c1)c1cccc(-c2nnn[nH]2)c1` [Example 63, N-[3-(2,4-dimethyl-1,3-thiazol-5-yl)benzyl]-N-[3-(1H-tetrazol-5-yl)phenyl]propanamide], the 50% inhibitory concentration (IC50) was found to be 235 nM.

Consider `CCC(=O)N(Cc1cccc(-c2cccnc2)c1)c1cccc(-c2nnn[nH]2)c1` [Example 64, N-(3-pyridin-3-ylbenzyl)-N-[3-(1H-tetrazol-5-yl)phenyl]propanamide], for which the IC50 worked out at 403 nM.

Consider `CCC(=O)N(Cc1ccc(S(C)(=O)=O)cc1)c1cccc(-c2nnn[nH]2)c1` [Example 65, N-[4-(methylsulfonyl)benzyl]-N-[3-(1H-tetrazol-5-yl)phenyl]propanamide], for which the IC50 worked out at 75 nM.

For the compound `CCC(=O)N(Cc1ccc(-c2cc[nH]n2)cc1)c1cccc(-c2nnn[nH]2)c1` [Example 66, N-[4-(1H-pyrazol-3-yl)benzyl]-N-[3-(1H-tetrazol-5-yl)phenyl]propanamide], the IC50 is 973 nM.

For the compound `CCOCC(=O)N(Cc1ccc(OC(F)(F)F)cc1)c1cc(Cl)cc(-c2nnn[nH]2)c1` [Example 67, N-[3-chloro-5-(1H-tetrazol-5-yl)phenyl]-2-ethoxy-N-[4-(trifluoromethoxy)benzyl]acetamide], the half-maximal inhibitory concentration (IC50) was determined as 16 nM.

In turn, `CCC(=O)N(Cc1ccc(-c2ccccc2)cc1)c1cccc(-c2nnn[nH]2)c1` [Example 69, N-(biphenyl-4-ylmethyl)-N-[3-(1H-tetrazol-5-yl)phenyl]propanamide] registered an IC50 of 506 nM.

`CCC(=O)N(Cc1ccc(-c2cn[nH]c2)cc1)c1cccc(-c2nnn[nH]2)c1` [Example 70, N-[4-(1H-pyrazol-4-yl)benzyl]-N-[3-(1H-tetrazol-5-yl)phenyl]propanamide] returned an IC50 of 455 nM.

Compound `CCC(=O)N(Cc1ccc(-c2c(C)noc2C)cc1)c1cccc(-c2nnn[nH]2)c1` [Example 71, N-[4-(3,5-dimethylisoxazol-4-yl)benzyl]-N-[3-(1H-tetrazol-5-yl)phenyl]propanamide] yielded a half-inhibitory concentration (IC50) of 182 nM.

In the case of `CCC(=O)N(Cc1ccc2ncccc2c1)c1cccc(-c2nnn[nH]2)c1` [Example 72, N-(quinolin-6-ylmethyl)-N-[3-(1H-tetrazol-5-yl)phenyl]propanamide], the IC50 amounted to 1110 nM.

In the case of `CCC(=O)N(Cc1cccc(C)c1)c1cccc(-c2nnn[nH]2)c1` [Example 73, N-(3-methylbenzyl)-N-[3-(1H-tetrazol-5-yl)phenyl]propanamide], the half-maximal inhibitory concentration (IC50) is 662 nM.

Compound `CCCCC(=O)N(Cc1ccc(O)cc1)c1cccc(-c2nnn[nH]2)c1` [Example 74, N-(4-hydroxybenzyl)-N-[3-(1H-tetrazol-5-yl)phenyl]pentanamide] returned an IC50 of 169 nM.

For the compound `CCC(=O)N(Cc1cccc(OC(C)C)c1)c1cc(F)cc(-c2nnn[nH]2)c1` [Example 75, N-[3-fluoro-5-(1H-tetrazol-5-yl)phenyl]-N-(3-isopropoxybenzyl)propanamide], the IC50 is 7.1 nM.

For `CCC(=O)N(Cc1ccc(Cl)c(OC(F)(F)F)c1)c1cc(F)cc(-c2nnn[nH]2)c1` [Example 76, N-[4-chloro-3-(trifluoromethoxy)benzyl]-N-[3-fluoro-5-(1H-tetrazol-5-yl)phenyl]propanamide], the IC50 stood at 18 nM.

Consider `CCC(=O)N(Cc1cccc(SC(F)(F)F)c1)c1cc(F)cc(-c2nnn[nH]2)c1` [Example 77, N-[3-fluoro-5-(1H-tetrazol-5-yl)phenyl]-N-{3-[(trifluoromethyl)thio]benzyl}propanamide], for which the IC50 was determined as 16 nM.

Consider `CCCCC(=O)N(Cc1cccc(O)c1)c1cccc(-c2nnn[nH]2)c1` [Example 79, N-(3-hydroxybenzyl)-N-[3-(1H-tetrazol-5-yl)phenyl]pentanamide], for which the IC50 worked out at 140 nM.

As for `CCC(=O)N(Cc1ccc2ccccc2n1)c1cc(F)cc(-c2nnn[nH]2)c1` [Example 80, N-[3-fluoro-5-(1H-tetrazol-5-yl)phenyl]-N-(quinolin-2-ylmethyl)propanamide], the IC50 worked out at 65 nM.

As to `CCC(=O)N(Cc1cccc(-c2cccnc2)c1)c1cc(F)cc(-c2nnn[nH]2)c1` [Example 81, N-[3-fluoro-5-(1H-tetrazol-5-yl)phenyl]-N-(3-pyridin-3-ylbenzyl)propanamide], the IC50 was found to be 34 nM.

With `CCC(=O)N(Cc1ccc(SC(F)(F)F)cc1)c1cc(F)cc(-c2nnn[nH]2)c1` [Example 82, N-[3-fluoro-5-(1H-tetrazol-5-yl)phenyl]-N-{4-[(trifluoromethyl)thio]benzyl}propanamide], the IC50 came out at 2.6 nM.

`CCC(=O)N(Cc1cccc(-c2ccncc2)c1)c1cc(F)cc(-c2nnn[nH]2)c1` [Example 83, N-[3-fluoro-5-(1H-tetrazol-5-yl)phenyl]-N-(3-pyridin-4-ylbenzyl)propanamide] had an IC50 of 25 nM.

As for `CCC(=O)N(Cc1cccc(-c2c(C)noc2C)c1)c1cc(F)cc(-c2nnn[nH]2)c1` [Example 85, N-[3-(3,5-dimethylisoxazol-4-yl)benzyl]-N-[3-fluoro-5-(1H-tetrazol-5-yl)phenyl]propanamide], the IC50 is 19 nM.

`CCNS(=O)(=O)c1cccc(-c2ccc(CN(C(=O)CC)c3cc(F)cc(-c4nnn[nH]4)c3)cc2)c1` [Example 86, N-({3′-[(ethylamino)sulfonyl]biphenyl-4-yl}methyl)-N-[3-fluoro-5-(1H-tetrazol-5-yl)phenyl]propanamide] displayed a half-inhibitory concentration (IC50) of 170 nM.

Turning to `CCC(=O)N(Cc1ccc(-c2cccc(S(C)(=O)=O)c2)cc1)c1cc(F)cc(-c2nnn[nH]2)c1` [Example 87, N-[3-fluoro-5-(1H-tetrazol-5-yl)phenyl]-N-{[3′-(methylsulfonyl)biphenyl-4-yl]methyl}propanamide], the IC50 stood at 185 nM.

In turn, `CCC(=O)N(Cc1ccc(-c2cn(C)nc2C)cc1)c1cc(F)cc(-c2nnn[nH]2)c1` [Example 88, N-[4-(1,3-dimethyl-1H-pyrazol-4-yl)benzyl]-N-[3-fluoro-5-(1H-tetrazol-5-yl)phenyl]propanamide] yielded an IC50 of 21 nM.

As for `CCC(=O)N(Cc1ccc(-c2ccncc2)cc1)c1cc(F)cc(-c2nnn[nH]2)c1` [Example 89, N-[3-fluoro-5-(1H-tetrazol-5-yl)phenyl]-N-(4-pyridin-4-ylbenzyl)propanamide], the half-inhibitory concentration (IC50) was 57 nM.

Compound `CCC(=O)N(Cc1ccc(-c2cccnc2)cc1)c1cc(F)cc(-c2nnn[nH]2)c1` [Example 90, N-[3-fluoro-5-(1H-tetrazol-5-yl)phenyl]-N-(4-pyridin-3-ylbenzyl)propanamide] displayed an IC50 of 140 nM.

Values taken from patent US20120115869A1, “TETRAZOLE DERIVATIVES” (MERCK SERONO S.A., priority 2009, published 2012).
